According to patent US20170217964A1, “AMINOTETRAHYDROPYRAN DERIVATIVE USED AS DIPEPTIDYL PEPTIDASEIV INHIBITOR” (FUJIAN BORO MEDICAL CO., LTD., priority 2014, published 2017):

Columns and labels:
DPP-4 enzyme = molecular target: T1, DPP-4 enzyme (Homo sapiens, UniProt P27487); assay: Test of the inhibition activity to the DPP-4 enzyme (fluorescence, substrate Gly-Pro-7-amido-4-methylcoumarin); type: biochemical; conditions: in vitro; compounds of the examples; read-out: DPP-4 inhibition ID50
T1 construct: purchased SIGMA
T1 sequence (P27487 whole entry, species assumed): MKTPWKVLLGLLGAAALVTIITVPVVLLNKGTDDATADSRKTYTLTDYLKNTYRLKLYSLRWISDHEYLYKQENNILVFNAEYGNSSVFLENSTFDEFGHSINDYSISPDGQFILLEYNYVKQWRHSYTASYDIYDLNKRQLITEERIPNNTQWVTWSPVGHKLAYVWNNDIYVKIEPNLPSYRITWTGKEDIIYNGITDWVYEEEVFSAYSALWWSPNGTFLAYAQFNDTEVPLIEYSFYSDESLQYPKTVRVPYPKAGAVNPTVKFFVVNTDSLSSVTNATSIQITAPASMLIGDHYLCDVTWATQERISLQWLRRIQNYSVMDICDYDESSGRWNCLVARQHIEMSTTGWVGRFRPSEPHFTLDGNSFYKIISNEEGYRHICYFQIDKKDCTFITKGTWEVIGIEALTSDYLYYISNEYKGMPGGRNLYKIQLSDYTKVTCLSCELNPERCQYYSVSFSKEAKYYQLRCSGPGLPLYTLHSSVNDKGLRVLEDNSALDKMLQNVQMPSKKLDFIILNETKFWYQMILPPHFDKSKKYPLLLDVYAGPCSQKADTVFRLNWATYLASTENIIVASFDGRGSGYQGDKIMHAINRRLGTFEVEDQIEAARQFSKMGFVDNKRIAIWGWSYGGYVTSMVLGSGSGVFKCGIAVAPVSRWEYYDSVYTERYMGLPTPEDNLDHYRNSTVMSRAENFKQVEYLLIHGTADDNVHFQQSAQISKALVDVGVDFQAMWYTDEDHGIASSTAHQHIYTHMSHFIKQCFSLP
Source text: Test of the inhibition activity of the compound of the present invention to the DPP-4 enzyme: […]

[1] = stability test of human liver microsomes; type: in vitro ADME

IC50 (DPP-4 enzyme) [nM] | metabolism stability compared with MK-3102 [1] | Compound
0.6 | better metabolism stability | CN1CCN(S(=O)(=O)n2cc3c(n2)CN([C@H]2CO[C@H](c4cc(F)ccc4F)[C@@H](N)C2)C3)CC1 [Compound 4, (2R, 3S, 5R)-2-(2,5-difluorophenyl)-5-[2-(N-methylpiperazinesulfonyl)-2,6-dihydropyrrolo[3,4,-c]pyrazol-5(4H)-yl]tetrahydro-2H-pyran-3-amine]
0.2 |  | N[C@H]1C[C@@H](N2Cc3cn(S(=O)(=O)N4CCN(C5CCCC5)CC4)nc3C2)CO[C@@H]1c1cc(F)ccc1F [Compound 5, (2R, 3S, 5R)-2-(2,5-difluorophenyl)-5-[2-(4-cyclopentylpiperazine-1-yl-sulfonyl)-2,6-dihydropyrrolo[3,4,-c]pyrazol-5(4H)-yl]tetrahydro-2H-pyran-3-amine]
0.5 |  | N[C@H]1C[C@@H](N2Cc3cn(S(=O)(=O)N4CCC4)nc3C2)CO[C@@H]1c1cc(F)ccc1F [Compound 13, (2R, 3S, 5R)-2-(2,5-difluorophenyl)-5-[2-(azetidine-1-sulfonyl)-2,6-dihydropyrrolo[3,4,-c]pyrazol-5(4H)-yl]tetrahydro-2H-pyran-3-amine]
0.4 |  | CC1CCN(S(=O)(=O)n2cc3c(n2)CN([C@H]2CO[C@H](c4cc(F)ccc4F)[C@@H](N)C2)C3)CC1 [Compound 14]
0.7 |  | N[C@H]1C[C@@H](N2Cc3cn(S(=O)(=O)N4CC5CCCCC5C4)nc3C2)CO[C@@H]1c1cc(F)ccc1F (stereo partly drawn) [Compound 15, (2R, 3S, 5R)-2-(2,5-difluorophenyl)-5-[2-(perhydroindole-1 sulfonyl)-2,6-dihydropyrrolo[3,4,-c]pyrazol-5(4H)-yl]tetrahydro-2H-pyran-3-amine]

Second part, the compound before the results:

Compound | IC50 (DPP-4 enzyme) [nM] | metabolism stability compared with MK-3102 [1]
N[C@H]1C[C@@H](N2Cc3cn(S(=O)(=O)N4CCOCC4)nc3C2)CO[C@@H]1c1cc(F)ccc1F [Compound 1, (2R, 3S, 5R)-2-(2,5-difluorophenyl)-5-[2-(morpholinesulfonyl)-2,6-dihydropyrrolo[3,4,-c]pyrazol-5(4H)-yl]tetrahydro-2H-pyran-3-amine] | 0.5 | better metabolism stability
N[C@H]1C[C@@H](N2Cc3cn(S(=O)(=O)N4CCCCC4)nc3C2)CO[C@@H]1c1cc(F)ccc1F [Compound 2, (2R, 3S, 5R)-2-(2,5-difluorophenyl)-5-[2-(piperidinesulfonyl)-2,6-dihydropyrrolo[3,4,-c]pyrazol-5(4H)-yl]tetrahydro-2H-pyran-3-amine] | 0.8 | 
N[C@H]1C[C@@H](N2Cc3cn(S(=O)(=O)N4CCCC4)nc3C2)CO[C@@H]1c1cc(F)ccc1F [Compound 3] | 0.3 | 
